According to paper PMC5453931, “Cathelicidin-trypsin inhibitor loop conjugate represents a promising antibiotic candidate with protease stability” (Scientific Reports, 2017):
Converted amounts (≈) assume the structure as drawn. Read-outs that look alike come from different tables or passages of the source. Where a SMILES comes first, the peptide text is derived from it.

Tests used:
Assay type in all cases: cell-based
P. aeruginosa = settings: 18 h
Experimental: (§1) A two-fold broth microdilution method described in our previous paper was used to determine the antimicrobial activities of parental and hybrid peptides. More than 30 strains including Gram-negative bacteria, Gram-positive bacteria and fungi were used in the current assay, in which the standard strains were stored in our lab and the clinical strains were collected from local hospitals. Briefly, bacteria were incubated in Mueller-Hinton broth (MH broth) at 37 °C to exponential phase and diluted to 10^6 CFU/mL. A serial dilution of peptide sample were prepared in 96-well microtiter plates (50 μL) and mixed with equal volume of microbial inoculums (50 μL). The plate was slowly shaken in the microbial incubator, and measured at A595 after incubation at 37 °C for 18 h. The minimal concentrations at which no microbial growth occurred were recorded as MIC (minimal inhibitory concentration) values. The traditional antibiotic ampicillin was used as positive control. The results are shown in an average of the MICs obtained from three independent experiments.

S. dysenteria = settings: two-fold broth microdilution, MH broth, 37 °C, 18 h, A595; mean of three independent experiments in duplicate
Experimental: as §1

S. aureus = settings: 18 h
Experimental: as §1

P. mirabilis = settings: 18 h
Experimental: as §1

C. albican = settings: 18 h
Experimental: as §1

E. coli = settings: 18 h
Experimental: as §1

B. subtilis = settings: 18 h
Experimental: as §1

Vibrio Parahaemolyticus = experiment: MIC, two-fold broth microdilution; settings: Vibrio parahaemolyticus, 18 h, read-out: MIC Vibrio Parahaemolyticus
Experimental: as §1

[1] = two-fold broth microdilution, MH broth, 37 °C, A595, mean of three independent experiments in duplicate

| SMILES | MIC P. aeruginosa (P. aeruginosa) [µg/mL] | MIC S. dysenteria (S. dysenteria) [µg/mL] | MIC S. aureus (S. aureus) [µg/mL] | MIC P. mirabilis (P. mirabilis) [µg/mL] | MIC C. albican (C. albican) [µg/mL] | MIC E. coli (E. coli) [µg/mL] | MIC B. subtilis (B. subtilis) [µg/mL] | other results |
| --- | --- | --- | --- | --- | --- | --- | --- | --- |
| CC(C)C[C@H](NC(=O)[C@H](CCCNC(=N)N)NC(=O)[C@H](CCCCN)NC(=O)[C@H](Cc1ccccc1)NC(=O)[C@H](Cc1ccccc1)NC(=O)[C@@H](N)CCCCN)C(=O)N[C@@H](CC(C)C)C(=O)N[C@@H](CCCCN)C(=O)N[C@@H](CO)C(=O)N[C@H](C(=O)N[C@@H](CCCNC(=N)N)C(=O)N[C@@H](CCCNC(=N)N)C(=O)N[C@@H](C)C(N)=O)C(C)C [Hc7] (H-KFFKRLLKSVRRA-NH2) | 150 (≈ 91 µM) | 75 (≈ 45.5 µM) | – | – | – | – | – | – |
| CC(C)C[C@H](NC(=O)[C@H](CCCNC(=N)N)NC(=O)[C@H](CCCCN)NC(=O)[C@H](Cc1ccccc1)NC(=O)[C@H](Cc1ccccc1)NC(=O)[C@@H](N)CCCCN)C(=O)N[C@@H](CC(C)C)C(=O)N[C@@H](CCCCN)C(=O)N[C@@H](CO)C(=O)N[C@H](C(=O)N[C@@H](CCCNC(=N)N)C(=O)N[C@@H](CCCNC(=N)N)C(=O)N[C@@H](C)C(=O)N[C@H](C(N)=O)C(C)C)C(C)C [Hc6] (H-KFFKRLLKSVRRAV-NH2) | 150 (≈ 85.9 µM) | 18.75 (≈ 10.7 µM) | 75 (≈ 42.9 µM) | 37.5 (≈ 21.5 µM) | 75 (≈ 42.9 µM) | 75 (≈ 42.9 µM) | 150 (≈ 85.9 µM) | – |
| CC(C)C[C@H](NC(=O)[C@H](CC(C)C)NC(=O)[C@H](CCCNC(=N)N)NC(=O)[C@H](CCCCN)NC(=O)[C@@H](N)Cc1ccccc1)C(=O)N[C@@H](CCCCN)C(=O)N[C@@H](CO)C(=O)N[C@H](C(=O)N[C@@H](CCCNC(=N)N)C(=O)N[C@@H](CCCNC(=N)N)C(=O)N[C@@H](C)C(=O)N[C@H](C(=O)N[C@@H](CCCCN)C(=O)N[C@@H](CCCCN)C(=O)N[C@@H](Cc1ccccc1)C(=O)N[C@@H](CCCNC(=N)N)C(=O)N[C@@H](CCCCN)C(N)=O)C(C)C)C(C)C [Hc9] (H-FKRLLKSVRRAVKKFRK-NH2) | 150 (≈ 69.5 µM) | 18.75 (≈ 8.68 µM) | 9.38 (≈ 4.34 µM) | – | 150 (≈ 69.5 µM) | 150 (≈ 69.5 µM) | – | – |
| CC(C)C[C@H](NC(=O)[C@H](CCCNC(=N)N)NC(=O)[C@H](CCCCN)NC(=O)[C@H](Cc1ccccc1)NC(=O)[C@H](Cc1ccccc1)NC(=O)[C@@H](N)CCCCN)C(=O)N[C@@H](CC(C)C)C(=O)N[C@@H](CCCCN)C(=O)N[C@@H](CO)C(=O)N[C@H](C(=O)N[C@@H](CCCNC(=N)N)C(=O)N[C@@H](CCCNC(=N)N)C(=O)N[C@@H](C)C(=O)N[C@H](C(=O)N[C@@H](CCCCN)C(=O)N[C@@H](CCCCN)C(N)=O)C(C)C)C(C)C [Hc4] (H-KFFKRLLKSVRRAVKK-NH2) | 150 (≈ 74.9 µM) | 4.69 (≈ 2.34 µM) | 75 (≈ 37.4 µM) | 75 (≈ 37.4 µM) | 75 (≈ 37.4 µM) | 75 (≈ 37.4 µM) | – | – |
| CC(C)C[C@H](NC(=O)[C@H](CC(C)C)NC(=O)[C@@H](N)CCCNC(=N)N)C(=O)N[C@@H](CCCCN)C(=O)N[C@@H](CO)C(=O)N[C@H](C(=O)N[C@@H](CCCNC(=N)N)C(=O)N[C@@H](CCCNC(=N)N)C(=O)N[C@@H](C)C(=O)N[C@H](C(=O)N[C@@H](CCCCN)C(=O)N[C@@H](CCCCN)C(=O)N[C@@H](Cc1ccccc1)C(=O)N[C@@H](CCCNC(=N)N)C(=O)N[C@@H](CCCCN)C(N)=O)C(C)C)C(C)C [Hc11] (H-RLLKSVRRAVKKFRK-NH2) | – | 150 (≈ 79.6 µM) | – | – | – | – | – | – |
| CC(C)C[C@H](NC(=O)[C@H](CC(C)C)NC(=O)[C@H](CCCNC(=N)N)NC(=O)[C@H](CCCCN)NC(=O)[C@@H](N)Cc1ccccc1)C(=O)N[C@@H](CCCCN)C(=O)N[C@@H](CO)C(=O)N[C@H](C(=O)N[C@@H](CCCNC(=N)N)C(=O)N[C@@H](CCCNC(=N)N)C(=O)N[C@@H](C)C(=O)N[C@H](C(=O)N[C@@H](CCCCN)C(=O)N[C@@H](CCCCN)C(=O)N[C@@H](Cc1ccccc1)C(N)=O)C(C)C)C(C)C [Hc15] (H-FKRLLKSVRRAVKKF-NH2) | – | 37.5 (≈ 20 µM) | – | – | – | 75 (≈ 40 µM) | – | – |
| C[C@@H](O)[C@H]1C(=O)N2C(C(=O)O)=C(S[C@@H]3CN[C@H](C(=O)N(C)C)C3)[C@H](C)[C@H]12 [Meropenem, reference compound] | – | – | – | – | – | – | – | MIC (Vibrio Parahaemolyticus): 0.47 µg/mL (≈ 1.23 µM) |
| CC[C@H](C)[C@H](NC(=O)[C@H](CC(C)C)NC(=O)[C@H](CCCNC(=N)N)NC(=O)[C@@H]1CCCN1C(=O)[C@H](CCCCN)NC(=O)[C@H](CCCCN)NC(=O)[C@H](CCCNC(=N)N)NC(=O)[C@H](Cc1ccccc1)NC(=O)[C@H](CCCCN)NC(=O)[C@H](CCCCN)NC(=O)[C@@H](NC(=O)[C@H](C)NC(=O)[C@H](CCCNC(=N)N)NC(=O)[C@H](CCCNC(=N)N)NC(=O)[C@@H](NC(=O)[C@H](CO)NC(=O)[C@H](CCCCN)NC(=O)[C@H](CC(C)C)NC(=O)[C@H](CC(C)C)NC(=O)[C@H](CCCNC(=N)N)NC(=O)[C@H](CCCCN)NC(=O)[C@H](Cc1ccccc1)NC(=O)[C@H](Cc1ccccc1)NC(=O)[C@@H](N)CCCCN)C(C)C)C(C)C)C(=O)NCC(=O)N[C@@H](CC(C)C)C(=O)N[C@@H](CO)C(=O)N[C@H](C(=O)N[C@@H](CC(C)C)C(=O)N[C@@H](CC(C)C)C(=O)O)[C@@H](C)O [Hc-CATH, reference compound] (H-KFFKRLLKSVRRAVKKFRKKPRLIGLSTLL-OH) | – | 0.59 (≈ 0.163 µM) | – | – | – | – | – | MIC S. aureus (S. aureus; [1]): 4.69 µg/mL (≈ 1.29 µM); MIC P. mirabilis (P. mirabilis; [1]): 4.69 µg/mL (≈ 1.29 µM); MIC C. albican (C. albican; [1]): 4.69 µg/mL (≈ 1.29 µM); MIC P. aeruginosa (P. aeruginosa; [1]): 18.75 µg/mL (≈ 5.17 µM); MIC E. coli (E. coli; [1]): 2.34 µg/mL (≈ 0.645 µM); MIC B. subtilis (B. subtilis; [1]): 75 µg/mL (≈ 20.7 µM) |
| CC(C)C[C@H](NC(=O)[C@H](CCCNC(=N)N)NC(=O)[C@H](CCCCN)NC(=O)[C@H](Cc1ccccc1)NC(=O)[C@H](Cc1ccccc1)NC(=O)[C@@H](N)CCCCN)C(=O)N[C@@H](CC(C)C)C(=O)N[C@@H](CCCCN)C(=O)N[C@@H](CO)C(=O)N[C@H](C(=O)N[C@@H](CCCNC(=N)N)C(=O)N[C@@H](CCCNC(=N)N)C(=O)N[C@@H](C)C(=O)N[C@H](C(=O)N[C@@H](CCCCN)C(N)=O)C(C)C)C(C)C [Hc5] (H-KFFKRLLKSVRRAVK-NH2) | 75 (≈ 40 µM) | 4.69 (≈ 2.5 µM) | 37.5 (≈ 20 µM) | 18.75 (≈ 10 µM) | 37.5 (≈ 20 µM) | 37.5 (≈ 20 µM) | 150 (≈ 80 µM) | – |
| CC(C)C[C@H](NC(=O)[C@H](CCCNC(=N)N)NC(=O)[C@H](CCCCN)NC(=O)[C@H](Cc1ccccc1)NC(=O)[C@H](Cc1ccccc1)NC(=O)[C@@H](N)CCCCN)C(=O)N[C@@H](CC(C)C)C(=O)N[C@@H](CCCCN)C(=O)N[C@@H](CO)C(=O)N[C@H](C(=O)N[C@@H](CCCNC(=N)N)C(=O)N[C@@H](CCCNC(=N)N)C(=O)N[C@@H](C)C(=O)N[C@H](C(=O)N[C@@H](CCCCN)C(=O)N[C@@H](CCCCN)C(=O)N[C@@H](Cc1ccccc1)C(=O)N[C@@H](CCCNC(=N)N)C(N)=O)C(C)C)C(C)C [Hc2] (H-KFFKRLLKSVRRAVKKFR-NH2) | 9.38 (≈ 4.07 µM) | 2.34 (≈ 1.01 µM) | 9.38 (≈ 4.07 µM) | 9.38 (≈ 4.07 µM) | 9.38 (≈ 4.07 µM) | 9.38 (≈ 4.07 µM) | 18.75 (≈ 8.13 µM) | – |
